Read-outs that look alike come from different tables or passages of the source.
Columns and labels:
[1] = biological target: T1, PBP3 (penicillin-binding protein 3, PBP3*) (Streptococcus pneumoniae, UniProt Q8DQ99); test: competitive enzyme-linked assay on electrochemical microfluidic chip, avidin-glucose oxidase readout
T1 construct: gene dacA; soluble truncated PBP3 (Gly15-Lys394), N-terminal hexa-His tag kept, synthetic gene, expressed in E. coli BL21*(DE3) pLysS, Ni-NTA purified; captured on anti-His antibody
T1 sequence (Q8DQ99 15-394): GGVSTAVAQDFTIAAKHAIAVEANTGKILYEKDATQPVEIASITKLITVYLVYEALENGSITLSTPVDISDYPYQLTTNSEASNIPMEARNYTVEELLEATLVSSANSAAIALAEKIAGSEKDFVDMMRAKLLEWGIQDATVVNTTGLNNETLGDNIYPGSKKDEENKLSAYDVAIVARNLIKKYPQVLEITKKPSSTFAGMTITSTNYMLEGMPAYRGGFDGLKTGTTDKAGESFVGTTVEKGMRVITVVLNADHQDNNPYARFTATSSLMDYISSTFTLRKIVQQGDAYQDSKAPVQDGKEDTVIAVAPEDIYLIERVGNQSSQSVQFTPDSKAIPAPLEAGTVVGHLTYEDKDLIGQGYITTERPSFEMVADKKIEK
From the text: competitive enzyme-linked assay on electrochemical microfluidic chip, avidin-glucose oxidase readout on PBP3 (penicillin-binding protein 3, PBP3*)

[2] = biological target: T1, PBP3 (penicillin-binding protein 3, PBP3*); test: competitive enzyme-linked assay on microtiter plate, optical readout; conditions: competition with ampicillin-biotin conjugate

Cc1nnc(SCC2=C(C(=O)O)N3C(=O)[C@@H](NC(=O)Cn4cnnn4)[C@H]3SC2)s1 [cefazolin]
IC50 ([1]; read-out: Cefazolin (converted)): 19.2 nM

CO/N=C(\C(=O)N[C@@H]1C(=O)N2C(C(=O)O)=C(COC(N)=O)CS[C@H]12)c1ccco1 [cefuroxime]
IC50 ([1]; read-out: Cefuroxime (converted)): 26.1 nM

CC1(C)S[C@@H]2[C@H](NC(=O)[C@H](N)c3ccccc3)C(=O)N2[C@H]1C(=O)O [ampicillin]
competitive enzyme-linked assay on microtiter plate, optical readout [2]: confirmed via the optical quantification of ampicillin on a microtiter plate

CCN1CCN(C(=O)N[C@@H](C(=O)N[C@@H]2C(=O)N3[C@@H]2SC(C)(C)[C@@H]3C(=O)O)c2ccccc2)C(=O)C1=O [piperacillin]
IC50 ([1]; read-out: Piperacillin (converted)): 35.5 nM

— article PMC5466632, “Clinical on-site monitoring of ß-lactam antibiotics for a personalized antibiotherapy” (Scientific Reports, 2017)
